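Test compounds were applied to cells in 96-well plates for 48 hours at 5 doses. GI50 is the concentration that inhibits growth by half.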 Activity calls are given as the source filed them. Rule as the data show it: active = GI50 up to about 1.1 µM and inactive = higher.
What was measured:
Test in all cases: growth of human tumour cells (NCI), 48 h
A549 = test system: A549
COLO 205 = test system: COLO 205
HCT-15 = test system: HCT-15
HOP-62 = test system: HOP-62
HT-29 = test system: HT-29
K562 = test system: K562
MDA-MB-435 = test system: MDA-MB-435
MOLT-4 = test system: MOLT-4
NCI-H23 = test system: NCI-H23
OVCAR-4 = test system: OVCAR-4
OVCAR-5 = test system: OVCAR-5
RPMI-8226 = test system: RPMI-8226
SF-539 = test system: SF-539
SK-MEL-28 = test system: SK-MEL-28
SK-OV-3 = test system: SK-OV-3
SN12C = test system: SN12C
TK-10 = test system: TK-10
UACC-257 = test system: UACC-257
UACC-62 = test system: UACC-62
UO-31 = test system: UO-31

| Structure (SMILES) | GI50 (A549) | GI50 (COLO 205) | GI50 (HCT-15) | GI50 (HOP-62) | GI50 (HT-29) | GI50 (K562) | GI50 (MDA-MB-435) | GI50 (MOLT-4) | GI50 (NCI-H23) | GI50 (OVCAR-4) | GI50 (OVCAR-5) | GI50 (RPMI-8226) | GI50 (SF-539) | GI50 (SK-MEL-28) | GI50 (SK-OV-3) | GI50 (SN12C) | GI50 (TK-10) | GI50 (UACC-257) | GI50 (UACC-62) | GI50 (UO-31) |
| --- | --- | --- | --- | --- | --- | --- | --- | --- | --- | --- | --- | --- | --- | --- | --- | --- | --- | --- | --- | --- |
| COc1ccc(C2C3=C(COC3=O)Oc3cc4c(cc32)OCO4)cc1OC (stereo not drawn) | 1.27 µM (inactive) | 0.879 µM (active) | 0.397 µM | 1.44 µM (inactive) | 0.395 µM (active) | 0.337 µM (active) | 0.123 µM (active) | 0.466 µM (active) | 3.94 µM (inactive) | 37.9 µM (inactive) | 8.97 µM (inactive) | 0.447 µM (active) | 0.547 µM (active) | 1.16 µM (inactive) | 0.75 µM (active) | 5.26 µM (inactive) | 12.1 µM (inactive) | 6.87 µM (inactive) | 0.859 µM (active) | 3.73 µM (inactive) |
| N#Cc1c(-c2ccc(Cl)cc2)cc(-c2ccc(Nc3ccnc4cc(Cl)ccc34)cc2)[nH]c1=O | > 100 µM (inactive) | > 100 µM (inactive) | > 100 µM | 15.1 µM (inactive) | > 100 µM (inactive) | > 54.5 µM (inactive) | > 100 µM (inactive) | > 58.6 µM (inactive) | 24.7 µM (inactive) | > 100 µM (inactive) | > 61.7 µM (inactive) | > 62.5 µM (inactive) | > 95.7 µM (inactive) | > 100 µM (inactive) | 34.7 µM (inactive) |  | 13.1 µM (inactive) | > 100 µM (inactive) | > 100 µM (inactive) | > 100 µM (inactive) |
| CC(C)=CCc1c(O)c(CC=C(C)C)c2oc3c(c(=O)c2c1O)C(C=C(C)C)Oc1cc(O)ccc1-3 (stereo not drawn) | 5.2 µM (inactive) | 16 µM (inactive) | 5.05 µM | 12.5 µM (inactive) | 10.3 µM (inactive) | 3.98 µM (inactive) | 3.53 µM (inactive) | 3.84 µM (inactive) | 4.67 µM (inactive) | 7.14 µM (inactive) | 18.5 µM (inactive) | 3.76 µM (inactive) | 11.7 µM (inactive) | 7.53 µM (inactive) | 14.7 µM (inactive) | 6.9 µM (inactive) | 4.17 µM (inactive) | 14 µM (inactive) | 6.37 µM (inactive) | 4.19 µM (inactive) |
| CCOC(=O)C(CC#Cc1ccc(C#CCC(NC(C)=O)C(=O)OCC)cc1)NC(C)=O (stereo not drawn) | > 100 µM (inactive) | > 100 µM (inactive) | > 100 µM | > 100 µM (inactive) | > 100 µM (inactive) | > 100 µM (inactive) | > 100 µM (inactive) | > 100 µM (inactive) | > 100 µM (inactive) | > 100 µM (inactive) | > 100 µM (inactive) | > 100 µM (inactive) | > 100 µM (inactive) | > 100 µM (inactive) | > 100 µM (inactive) | > 100 µM (inactive) | > 100 µM (inactive) | > 100 µM (inactive) | > 100 µM (inactive) | > 100 µM (inactive) |
| O=C(c1ccccc1)N1CCC(Nc2nccs2)O1 (stereo not drawn) | > 10 µM (inactive) | > 10 µM (inactive) | > 10 µM | > 10 µM (inactive) | > 10 µM (inactive) | > 10 µM (inactive) | > 10 µM (inactive) | > 10 µM (inactive) | > 10 µM (inactive) | > 10 µM (inactive) | > 10 µM (inactive) | > 10 µM (inactive) | > 10 µM (inactive) | > 10 µM (inactive) | > 10 µM (inactive) | > 10 µM (inactive) | > 10 µM (inactive) | > 10 µM (inactive) |  | > 10 µM (inactive) |
| N=C(N)NCCCC(NC(=O)OCCCCn1ccc(N)nc1=O)C(=O)O (stereo not drawn) | > 100 µM (inactive) | > 100 µM (inactive) | > 100 µM | > 100 µM (inactive) | > 100 µM (inactive) | > 100 µM (inactive) | > 100 µM (inactive) | > 100 µM (inactive) | > 100 µM (inactive) | > 100 µM (inactive) | > 100 µM (inactive) | > 100 µM (inactive) | > 100 µM (inactive) | > 100 µM (inactive) | > 100 µM (inactive) | > 100 µM (inactive) | > 100 µM (inactive) | > 100 µM (inactive) | > 100 µM (inactive) | > 100 µM (inactive) |

Source: ChEMBL document CHEMBL1201862, “PubChem BioAssay data set” (2004)
